What was measured:
NCI-H2009 = experiment: cells; assay type: functional, cell-based, Homo sapiens; conditions: Homo sapiens, NCI-H2009;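 further: cell viability assay measuring inhibition of NCI-H2009 cell growth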
Description: SANGER: Inhibition of human NCI-H2009 cell growth in a cell viability assay.

L-540 = experiment: cells; assay type: functional, cell-based, Homo sapiens; conditions: Homo sapiens, L-540;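 further: growth inhibition of the human L-540 cell line, read out with a viability assay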
Description: SANGER: Inhibition of human L-540 cell growth in a cell viability assay.

SK-CO-1 = experiment: cells; assay type: functional, cell-based, Homo sapiens; conditions: Homo sapiens, SK-CO-1;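 further: growth inhibition of SK-CO-1 cells, determined by a viability readout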
Description: SANGER: Inhibition of human SK-CO-1 cell growth in a cell viability assay.

NCI-H2170 = experiment: cells; assay type: functional, cell-based, Homo sapiens; conditions: Homo sapiens, NCI-H2170;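 further: cell viability assay measuring growth inhibition of human NCI-H2170 cancer cells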
Description: SANGER: Inhibition of human NCI-H2170 cell growth in a cell viability assay.

UACC-812 = experiment: cells; assay type: functional, cell-based, Homo sapiens; conditions: Homo sapiens, UACC-812
Description: SANGER: Inhibition of human UACC-812 cell growth in a cell viability assay.

MeWo = experiment: cells; assay type: functional, cell-based, Homo sapiens; conditions: Homo sapiens, MeWo;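 further: growth inhibition of MeWo cells, determined by a cell viability readout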
Description: SANGER: Inhibition of human Mewo cell growth in a cell viability assay.

NCI-H1436 = experiment: cells; assay type: functional, cell-based, Homo sapiens; conditions: Homo sapiens, NCI-H1436;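 further: growth suppression of human NCI-H1436 cells, determined with a cell viability readout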
Description: SANGER: Inhibition of human NCI-H1436 cell growth in a cell viability assay.

EFO-21 = experiment: cells; assay type: functional, cell-based, Homo sapiens; conditions: Homo sapiens, EFO-21;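 further: growth inhibition of EFO-21 cells measured with a viability assay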
Description: SANGER: Inhibition of human EFO-21 cell growth in a cell viability assay.

HSC-3 = experiment: cells; assay type: functional, cell-based, Homo sapiens; conditions: Homo sapiens, HSC-3
Description: SANGER: Inhibition of human HSC-3 cell growth in a cell viability assay.

KYSE-140 = experiment: cells; assay type: functional, cell-based, Homo sapiens; conditions: Homo sapiens, KYSE-140;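 further: cell viability assay measuring growth inhibition in human KYSE-140 cells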
Description: SANGER: Inhibition of human KYSE-140 cell growth in a cell viability assay.

YAPC = experiment: cells; assay type: functional, cell-based, Homo sapiens; conditions: Homo sapiens, YAPC;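 further: growth inhibition of YAPC cells, measured with a cell viability assay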
Description: SANGER: Inhibition of human YAPC cell growth in a cell viability assay.

CCF-STTG1 = experiment: cells; assay type: functional, cell-based, Homo sapiens; conditions: Homo sapiens, CCF-STTG1;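 further: growth inhibition of human CCF-STTG1 cells, determined with a cell viability read-out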
Description: SANGER: Inhibition of human CCF-STTG1 cell growth in a cell viability assay.

SNU-475 = experiment: cells; assay type: functional, cell-based, Homo sapiens; conditions: Homo sapiens, SNU-475
Description: SANGER: Inhibition of human SNU-475 cell growth in a cell viability assay.

TYK-nu = experiment: cells; assay type: functional, cell-based, Homo sapiens; conditions: Homo sapiens, TYK-nu;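 further: growth inhibition of human TYK-nu cells, read out by a cell viability assay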
Description: SANGER: Inhibition of human TYK-nu cell growth in a cell viability assay.

HCC1143 = experiment: cells; assay type: functional, cell-based, Homo sapiens; conditions: Homo sapiens, HCC1143;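 further: growth inhibition of human HCC1143 cells, read out with a cell viability assay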
Description: SANGER: Inhibition of human HCC1143 cell growth in a cell viability assay.

NCI-H1993 = experiment: cells; assay type: functional, cell-based, Homo sapiens; conditions: Homo sapiens, NCI-H1993;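 further: growth inhibition of the cancer cell line, assessed with a cell viability assay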
Description: SANGER: Inhibition of human NCI-H1993 cell growth in a cell viability assay.

NCI-H1792 = experiment: cells; assay type: functional, cell-based, Homo sapiens; conditions: Homo sapiens, NCI-H1792;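 further: growth inhibition of human NCI-H1792 cells, read out as cell viability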
Description: SANGER: Inhibition of human NCI-H1792 cell growth in a cell viability assay.

DK-MG = experiment: cells; assay type: functional, cell-based, Homo sapiens; conditions: Homo sapiens, DK-MG;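 further: growth inhibition of DK-MG cells, read out with a cell viability assay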
Description: SANGER: Inhibition of human DK-MG cell growth in a cell viability assay.

RT-4 = experiment: SANGER: Inhibition of human RT4 cell growth in a cell viability assay.; assay type: functional, cell-based; conditions: Homo sapiens, RT-4
MFE-296 = experiment: SANGER: Inhibition of human MFE-296 cell growth in a cell viability assay.; assay type: functional, cell-based; conditions: Homo sapiens, MFE-296
Detroit 562 = experiment: cells; assay type: functional, cell-based, Homo sapiens; conditions: Homo sapiens, Detroit 562;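 further: growth inhibition of human Detroit 562 cells, read out by a cell viability assay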
Description: SANGER: Inhibition of human Detroit562 cell growth in a cell viability assay.

LC-1F = experiment: cells; assay type: functional, cell-based, Homo sapiens; conditions: Homo sapiens, LC-1F;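 further: growth inhibition of human LC-1F cells, read out with a cell viability assay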
Description: SANGER: Inhibition of human LC-1F cell growth in a cell viability assay.

UMC-11 = experiment: cells; assay type: functional, cell-based, Homo sapiens; conditions: Homo sapiens, UMC-11;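 further: growth inhibition of UMC-11 cells, read out with a cell viability assay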
Description: SANGER: Inhibition of human UMC-11 cell growth in a cell viability assay.

NCI-H1618 = experiment: cells; assay type: functional, cell-based, Homo sapiens; conditions: Homo sapiens, NCI-H1618;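 further: growth inhibition of human NCI-H1618 cells, measured by a cell viability assay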
Description: SANGER: Inhibition of human NCI-H1618 cell growth in a cell viability assay.

COLO 205 = experiment: cells; assay type: functional, cell-based, Homo sapiens; conditions: Homo sapiens, COLO 205
Description: SANGER: Inhibition of human COLO-205 cell growth in a cell viability assay.

DoTc2-4510 = experiment: cells; assay type: functional, cell-based, Homo sapiens; conditions: Homo sapiens, DoTc2-4510
CESS = experiment: SANGER: Inhibition of human CESS cell growth in a cell viability assay.; assay type: functional, cell-based; conditions: Homo sapiens, CESS
ST486 = experiment: SANGER: Inhibition of human ST486 cell growth in a cell viability assay.; assay type: functional, cell-based; conditions: Homo sapiens, ST486
NCI-H1693 = experiment: cells; assay type: functional, cell-based, Homo sapiens; conditions: Homo sapiens, NCI-H1693;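 further: growth inhibition of the human cell line, read out with a cell viability assay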
Description: SANGER: Inhibition of human NCI-H1693 cell growth in a cell viability assay.

IPC-298 = experiment: SANGER: Inhibition of human IPC-298 cell growth in a cell viability assay.; assay type: functional, cell-based; conditions: Homo sapiens, IPC-298
HEC-1 = experiment: cells; assay type: functional, cell-based, Homo sapiens; conditions: Homo sapiens, HEC-1;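 further: growth inhibition of the cell line, read out with a cell viability assay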
Description: SANGER: Inhibition of human HEC-1 cell growth in a cell viability assay.

HGC-27 = experiment: cells; assay type: functional, cell-based, Homo sapiens; conditions: Homo sapiens, HGC-27;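 further: growth inhibition of human HGC-27 cells, read out in a cell viability assay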
Description: SANGER: Inhibition of human HGC-27 cell growth in a cell viability assay.

CAL-85-1 = experiment: cells; assay type: functional, cell-based, Homo sapiens; conditions: Homo sapiens, CAL-85-1;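 further: growth inhibition of human CAL-85-1 cells, read out with a cell viability assay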
Description: SANGER: Inhibition of human CAL-85-1 cell growth in a cell viability assay.

C3A = experiment: cells; assay type: functional, cell-based, Homo sapiens; conditions: Homo sapiens, C3A;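 further: growth inhibition of C3A human cells, quantified with a cell viability readout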
Description: SANGER: Inhibition of human C3A cell growth in a cell viability assay.

MIA PaCa-2 = experiment: cells; assay type: functional, cell-based, Homo sapiens; conditions: Homo sapiens, MIA PaCa-2;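 further: growth inhibition of MIA PaCa-2 cells, read out with a cell viability assay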
Description: SANGER: Inhibition of human MIA-PaCa-2 cell growth in a cell viability assay.

PLC-PRF-5 = experiment: cells; assay type: functional, cell-based, Homo sapiens; conditions: Homo sapiens, PLC-PRF-5;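 further: growth inhibition of human PLC-PRF-5 cells, read out with a viability assay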
Description: SANGER: Inhibition of human PLC-PRF-5 cell growth in a cell viability assay.

J82 = experiment: cells; assay type: functional, cell-based, Homo sapiens; conditions: Homo sapiens, J82;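 further: growth inhibition of J82 cells, read out with a cell viability assay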
Description: SANGER: Inhibition of human J82 cell growth in a cell viability assay.

P12-Ichikawa = experiment: cells; assay type: functional, cell-based, Homo sapiens; conditions: Homo sapiens, P12-Ichikawa

| Compound | IC50 (NCI-H2009) | IC50 (L-540) | IC50 (SK-CO-1) | IC50 (NCI-H2170) | IC50 (UACC-812) | IC50 (MeWo) | IC50 (NCI-H1436) | IC50 (EFO-21) | IC50 (HSC-3) | IC50 (KYSE-140) | IC50 (YAPC) | IC50 (CCF-STTG1) | IC50 (SNU-475) | IC50 (TYK-nu) | IC50 (HCC1143) | IC50 (NCI-H1993) | IC50 (NCI-H1792) | IC50 (DK-MG) | IC50 (RT-4) | IC50 (MFE-296) | further results |
| --- | --- | --- | --- | --- | --- | --- | --- | --- | --- | --- | --- | --- | --- | --- | --- | --- | --- | --- | --- | --- | --- |
| COc1cccc2c1C(=O)c1c(O)c3c(c(O)c1C2=O)C[C@@](O)(C(=O)CO)C[C@@H]3O[C@H]1C[C@H](N)[C@H](O)[C@H](C)O1 [DOXORUBICIN] | 0.0518 µM | 0.213 µM | 0.129 µM | 0.11 µM | > 1.02 µM | > 1.02 µM | > 1.02 µM | 0.362 µM | 0.0745 µM | 0.0504 µM | > 1.02 µM | 0.0355 µM | > 1.02 µM | 0.663 µM | > 1.02 µM | 1 µM | 0.572 µM | > 1.02 µM | > 1.02 µM | 0.0705 µM | IC50 (Detroit 562): 0.231 µM; IC50 (LC-1F): > 1.02 µM; IC50 (UMC-11): 0.331 µM; IC50 (NCI-H1618): 0.104 µM; IC50 (COLO 205): 0.027 µM; IC50 (DoTc2-4510): 0.0362 µM; IC50 (CESS): 0.0394 µM; IC50 (ST486): 0.0155 µM; IC50 (NCI-H1693): 0.29 µM; IC50 (IPC-298): 0.196 µM; IC50 (HEC-1): 0.183 µM; IC50 (HGC-27): 0.0136 µM; IC50 (CAL-85-1): 0.0445 µM; IC50 (C3A): 0.416 µM; IC50 (MIA PaCa-2): 0.0342 µM; IC50 (PLC-PRF-5): 0.901 µM; IC50 (J82): 0.0213 µM; IC50 (P12-Ichikawa): 0.0493 µM |
| O=C(O)c1ccc(-c2c[nH]c3ncc(-c4ccccc4)cc23)cc1C1CCCC1 [GSK-650394] | 3.76 µM | > 16 µM | > 16 µM | > 16 µM | > 16 µM | > 16 µM | > 16 µM | > 16 µM | > 16 µM | 8.09 µM | > 16 µM | 12.6 µM | > 16 µM | > 16 µM | > 16 µM | > 16 µM | > 16 µM | > 16 µM | > 16 µM | 11.3 µM | IC50 (Detroit 562): 12.8 µM; IC50 (LC-1F): > 16 µM; IC50 (UMC-11): > 16 µM; IC50 (NCI-H1618): > 16 µM; IC50 (COLO 205): > 16 µM; IC50 (DoTc2-4510): > 16 µM; IC50 (CESS): > 16 µM; IC50 (ST486): > 16 µM; IC50 (NCI-H1693): > 16 µM; IC50 (IPC-298): > 16 µM; IC50 (HEC-1): > 16 µM; IC50 (HGC-27): 1.31 µM; IC50 (CAL-85-1): > 16 µM; IC50 (C3A): > 16 µM; IC50 (MIA PaCa-2): 7.08 µM; IC50 (PLC-PRF-5): > 16 µM; IC50 (J82): 8.2 µM; IC50 (P12-Ichikawa): > 16 µM |
| CCC/C=C/C=C/C(=O)O[C@H]1/C(=C/C(=O)OC)C[C@H]2C[C@H]([C@@H](C)O)OC(=O)C[C@H](O)C[C@@H]3C[C@H](OC(C)=O)C(C)(C)[C@](O)(C[C@@H]4C/C(=C/C(=O)OC)C[C@H](/C=C/C(C)(C)[C@]1(O)O2)O4)O3 [BRYOSTATIN 1] | > 0.008 µM | > 0.008 µM | > 0.008 µM | > 0.008 µM | > 0.008 µM | > 0.008 µM | > 0.008 µM | > 0.008 µM | > 0.008 µM | > 0.008 µM | > 0.008 µM | > 0.008 µM | > 0.008 µM | > 0.008 µM | > 0.008 µM | > 0.008 µM | > 0.008 µM | > 0.008 µM | > 0.008 µM | > 0.008 µM | IC50 (Detroit 562): > 0.008 µM; IC50 (LC-1F): > 0.008 µM; IC50 (UMC-11): > 0.008 µM; IC50 (NCI-H1618): > 0.008 µM; IC50 (COLO 205): > 0.008 µM; IC50 (DoTc2-4510): > 0.008 µM; IC50 (CESS): > 0.008 µM; IC50 (ST486): > 0.008 µM; IC50 (NCI-H1693): > 0.008 µM; IC50 (IPC-298): > 0.008 µM; IC50 (HEC-1): > 0.008 µM; IC50 (HGC-27): > 0.008 µM; IC50 (CAL-85-1): 0.00552 µM; IC50 (C3A): > 0.008 µM; IC50 (MIA PaCa-2): > 0.008 µM; IC50 (PLC-PRF-5): > 0.008 µM; IC50 (J82): > 0.008 µM; IC50 (P12-Ichikawa): > 0.008 µM |
| C=C(c1ccc(C(=O)O)cc1)c1cc2c(cc1C)C(C)(C)CCC2(C)C [BEXAROTENE] | > 8 µM | > 8 µM | > 8 µM | > 8 µM | > 8 µM | > 8 µM | > 8 µM | > 8 µM | > 8 µM | > 8 µM | > 8 µM | > 8 µM | > 8 µM | 7.11 µM | > 8 µM | > 8 µM | > 8 µM | 0.0512 µM | > 8 µM | > 8 µM | IC50 (Detroit 562): > 8 µM; IC50 (LC-1F): > 8 µM; IC50 (UMC-11): > 8 µM; IC50 (NCI-H1618): > 8 µM; IC50 (COLO 205): > 8 µM; IC50 (DoTc2-4510): > 8 µM; IC50 (CESS): > 8 µM; IC50 (ST486): > 8 µM; IC50 (NCI-H1693): > 8 µM; IC50 (IPC-298): > 8 µM; IC50 (HEC-1): > 8 µM; IC50 (HGC-27): > 8 µM; IC50 (CAL-85-1): > 8 µM; IC50 (C3A): > 8 µM; IC50 (MIA PaCa-2): > 8 µM; IC50 (PLC-PRF-5): > 8 µM; IC50 (J82): > 8 µM; IC50 (P12-Ichikawa): > 8 µM |

Reference: ChEMBL document CHEMBL1201861, “Genomics of Drug Sensitity in Cancer screening data, Wellcome Trust Sanger Institute”
